From patent US9023789B2, “Amylin analogs and pharmaceutical compositions thereof” (Novo Nordisk A/S, priority 2012, dated 2015)
Numbered stars: 1 amine (or outer) side, 2 acyl side, 3 side chain; on linkers, the order of the positions; unused ones are H or OH. Bridge positions count the residues as written; N and C are the ends. Side chains are listed from the residue outwards. Peptide text beside a SMILES is read from it. * marks the point of attachment. C20 diacid = O=C(O)CCCCCCCCCCCCCCCCCCC(=O)*; γGlu = O=C(O)[C@H](CCC(=O)[*:2])N[*:1]

How the values were obtained:
[1] = ASSAY (III) ThT fibrillation assay for physical stability; format: physicochemical
Method in brief: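 Physical stability scored by ThT fluorescence (444 nm excitation, 485 nm emission) tracked every 20 min during 37 °C incubation with 960 rpm shaking, ThT at 1 μM final. Values are replicate means with SD at chosen times; HPLC against pramlintide standard gives initial and post-assay soluble concentrations.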

[2] = molecular target: T1, human amylin receptor (membranes from Amylin 3(a)/CRE-luc cells) (Homo sapiens, UniProt O60896+P30988); experiment: ASSAY (V) binding to the human amylin receptor (SPA, 125I-rat amylin); settings: for IC50: Table 4, read-out: hAmylin-R bind IC50;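 as to all read-outs here: competition binding of cell membranes (35 ng/µL) mixed with SPA beads in 384-well plates at 40 µL total volume, read by scintillation counting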
T1 construct: expressed in transfected cells
T1 sequence (P30988 25-474): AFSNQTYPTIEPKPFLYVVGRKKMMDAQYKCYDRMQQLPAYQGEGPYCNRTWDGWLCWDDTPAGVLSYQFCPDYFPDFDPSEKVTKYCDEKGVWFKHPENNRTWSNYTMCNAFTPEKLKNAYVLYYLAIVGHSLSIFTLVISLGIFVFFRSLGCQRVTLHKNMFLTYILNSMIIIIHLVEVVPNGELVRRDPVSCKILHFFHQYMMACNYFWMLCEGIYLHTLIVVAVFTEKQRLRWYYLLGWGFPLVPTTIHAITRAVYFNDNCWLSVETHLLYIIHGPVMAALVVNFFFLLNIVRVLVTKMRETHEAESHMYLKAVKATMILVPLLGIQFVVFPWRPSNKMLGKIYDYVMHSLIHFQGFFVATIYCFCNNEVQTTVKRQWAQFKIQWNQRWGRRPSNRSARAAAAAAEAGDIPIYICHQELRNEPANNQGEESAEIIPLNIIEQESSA
T1 sequence (O60896 24-148 partner): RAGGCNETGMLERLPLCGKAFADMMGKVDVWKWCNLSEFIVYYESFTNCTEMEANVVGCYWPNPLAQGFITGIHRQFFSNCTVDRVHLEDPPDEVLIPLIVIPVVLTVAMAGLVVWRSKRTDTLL

rat calcitonin receptor = molecular target: T2, rat calcitonin receptor (Rattus norvegicus, UniProt P32214); experiment: ASSAY (VIII) binding to the rat calcitonin receptor; settings: Table 7, read-out: rCTR bind IC50
T2 construct: expressed in transfected cells; host or cells: BHK tk'ts 13 (transient, FuGENE 6), membranes
T2 sequence (P32214 25-479 isoform P32214-2 limits assumed): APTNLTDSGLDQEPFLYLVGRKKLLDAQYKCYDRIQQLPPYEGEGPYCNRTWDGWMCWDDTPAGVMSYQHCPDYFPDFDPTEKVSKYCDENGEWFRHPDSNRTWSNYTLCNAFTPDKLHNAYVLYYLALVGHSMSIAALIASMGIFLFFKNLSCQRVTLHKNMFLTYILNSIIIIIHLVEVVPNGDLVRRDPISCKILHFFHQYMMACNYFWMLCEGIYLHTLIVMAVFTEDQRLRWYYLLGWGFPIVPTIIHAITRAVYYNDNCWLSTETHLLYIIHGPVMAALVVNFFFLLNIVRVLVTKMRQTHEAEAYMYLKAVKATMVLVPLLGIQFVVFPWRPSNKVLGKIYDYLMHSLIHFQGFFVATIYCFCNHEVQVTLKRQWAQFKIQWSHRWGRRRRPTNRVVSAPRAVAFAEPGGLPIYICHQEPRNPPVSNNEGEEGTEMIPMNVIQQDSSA
Method in brief: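 Receptor source: membranes from transiently transfected BHK tk′ts 13 cells expressing rat calcitonin receptor, collected roughly 48 hours after transfection.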

[3] = Table 5, selectivity, hCTR bind IC50 / hAmylin-R bind IC50
[4] = Table 5a, selectivity, hCTR bind IC50 / hAmylin-R bind IC50
[5] = Table 5b, selectivity, hCTR bind IC50 / hAmylin-R bind IC50
[6] = Table 5c, selectivity, hCTR bind IC50 / hAmylin-R bind IC50
[7] = Table 7, human binding selectivity, included for comparison
[8] = Table 7a (preferred compounds), human binding selectivity, included for comparison
[9] = ratio of human calcitonin receptor binding IC50 to human amylin receptor binding IC50

ThT pH 4.0 lag time (h) [1] [h] | IC50 [2] [nM] | Ratio hCT/hAmylin binding [2, 3] | Ratio hCT/hAmylin binding [2, 4] | Ratio hCT/hAmylin binding [2, 5] | Ratio hCT/hAmylin binding [2, 6] | Ratio hCT/hAmylin binding [2, 7] | Ratio hCT/hAmylin binding [2, 8] | Ratio hCT/hAmylin binding [2, 9] | IC50 (rat calcitonin receptor) [nM] | SMILES
0 | 1.18 | 27.6 | 27.6 | 27.6 | 27.6 | 27.6 | 27.6 | 27.6 | 135 | CC(C)C[C@H](NC(=O)[C@H](CCCNC(=N)N)NC(=O)[C@H](CCC(N)=O)NC(=O)[C@@H](NC(=O)[C@H](C)NC(=O)[C@@H]1CSSC[C@H](NC(=O)[C@@H](N)CCCCNC(=O)CC[C@H](NC(=O)CC[C@H](NC(=O)CCCCCCCCCCCCCCCCCCC(=O)O)C(=O)O)C(=O)O)C(=O)N[C@@H](CC(N)=O)C(=O)N[C@@H]([C@@H](C)O)C(=O)N[C@@H](C)C(=O)N[C@@H]([C@@H](C)O)C(=O)N1)[C@@H](C)O)C(=O)N[C@@H](C)C(=O)N[C@@H](CC(=O)O)C(=O)N[C@@H](Cc1ccccc1)C(=O)N[C@@H](CC(C)C)C(=O)N[C@@H](CCCNC(=N)N)C(=O)N[C@@H](Cc1c[nH]cn1)C(=O)N[C@@H](CO)C(=O)N[C@@H](CO)C(=O)N1CCC[C@H]1C(=O)N[C@@H](CC(N)=O)C(=O)N[C@@H](Cc1ccccc1)C(=O)NCC(=O)N[C@@H](C)C(=O)N1CCC[C@H]1C(=O)N[C@@H](CC(C)C)C(=O)N[C@@H](CO)C(=O)N[C@@H](CO)C(=O)N[C@H](C(=O)N[C@@H](CC(N)=O)C(=O)N[C@H](C(=O)NCC(=O)N[C@@H](CO)C(=O)N[C@@H](CC(=O)O)C(=O)N[C@H](C(=O)N[C@@H](Cc1ccc(O)cc1)C(N)=O)[C@@H](C)O)C(C)C)[C@@H](C)O [Example 1] (H-K([γGlu-γGlu-C20 diacid])CNTATCATQRLADFLRHSSPNFGAPLSSTNVGSDTY-NH2; disulfide 2-7)
16 |  | 13.9 | 13.9 |  |  | 13.9 | 13.9 | 13.9 | 21.6 | CC[C@H](C)[C@H](NC(=O)[C@H](C)NC(=O)CNC(=O)[C@H](Cc1ccccc1)NC(=O)[C@H](CC(N)=O)NC(=O)[C@@H]1CCCN1C(=O)[C@H](CO)NC(=O)[C@H](CO)NC(=O)[C@H](Cc1c[nH]cn1)NC(=O)[C@H](CCCNC(=N)N)NC(=O)[C@H](CC(C)C)NC(=O)[C@H](Cc1ccccc1)NC(=O)[C@H](CC(N)=O)NC(=O)[C@H](C)NC(=O)[C@H](CC(C)C)NC(=O)[C@H](CCCNC(=N)N)NC(=O)[C@H](CCC(N)=O)NC(=O)[C@@H](NC(=O)[C@H](C)NC(=O)[C@@H]1CSSC[C@H](NC(=O)[C@H](CCCCN)NC(=O)CC[C@H](NC(=O)CCCCCCCCCCCCCCCCCCC(=O)O)C(=O)O)C(=O)N[C@@H](CC(N)=O)C(=O)N[C@@H]([C@@H](C)O)C(=O)N[C@@H](C)C(=O)N[C@@H]([C@@H](C)O)C(=O)N1)[C@@H](C)O)C(=O)N1CCC[C@H]1C(=O)N[C@@H](CO)C(=O)N[C@@H](CO)C(=O)N[C@H](C(=O)N[C@@H](CC(N)=O)C(=O)N[C@H](C(=O)NCC(=O)N1CCC[C@H]1C(=O)N[C@@H](CCC(=O)O)C(=O)N[C@H](C(=O)N[C@@H](Cc1ccc(O)cc1)C(N)=O)[C@@H](C)O)C(C)C)[C@@H](C)O [Example 29] ({C20 diacid-γGlu}-KCNTATCATQRLANFLRHSSPNFGAIPSSTNVGPETY-NH2; disulfide 2-7)
45 |  | 16.0 | 16.0 | 16.0 |  | 16.0 | 16.0 | 16.0 | 26.5 | CC[C@H](C)[C@H](NC(=O)[C@H](C)NC(=O)CNC(=O)[C@H](Cc1ccccc1)NC(=O)[C@H](CC(N)=O)NC(=O)[C@@H]1CCCN1C(=O)[C@H](CO)NC(=O)[C@H](CO)NC(=O)[C@H](Cc1c[nH]cn1)NC(=O)[C@H](CCCNC(=N)N)NC(=O)[C@H](CC(C)C)NC(=O)[C@H](Cc1ccccc1)NC(=O)[C@H](CCC(=O)O)NC(=O)[C@H](C)NC(=O)[C@H](CC(C)C)NC(=O)[C@H](CCCNC(=N)N)NC(=O)[C@H](CCC(N)=O)NC(=O)[C@@H](NC(=O)[C@H](C)NC(=O)[C@@H]1CSSC[C@H](NC(=O)[C@H](CCCCN)NC(=O)CC[C@H](NC(=O)CCCCCCCCCCCCCCCCCCC(=O)O)C(=O)O)C(=O)N[C@@H](CC(N)=O)C(=O)N[C@@H]([C@@H](C)O)C(=O)N[C@@H](C)C(=O)N[C@@H]([C@@H](C)O)C(=O)N1)[C@@H](C)O)C(=O)N1CCC[C@H]1C(=O)N[C@@H](CO)C(=O)N[C@@H](CO)C(=O)N[C@H](C(=O)N1CCC[C@H]1C(=O)N[C@H](C(=O)NCC(=O)N[C@@H](CO)C(=O)N[C@@H](CC(N)=O)C(=O)N[C@H](C(=O)N[C@@H](Cc1ccc(O)cc1)C(N)=O)[C@@H](C)O)C(C)C)[C@@H](C)O [Example 31] ({C20 diacid-γGlu}-KCNTATCATQRLAEFLRHSSPNFGAIPSSTPVGSNTY-NH2; disulfide 2-7 (inferred))
45 |  | 15.7 | 15.7 | 15.7 |  | 15.7 | 15.7 | 15.7 | 60.1 | CC[C@H](C)[C@H](NC(=O)[C@H](C)NC(=O)CNC(=O)[C@H](Cc1ccccc1)NC(=O)[C@H](CC(N)=O)NC(=O)[C@@H]1CCCN1C(=O)[C@H](CO)NC(=O)[C@H](CO)NC(=O)[C@H](Cc1c[nH]cn1)NC(=O)[C@H](CCCNC(=N)N)NC(=O)[C@H](CC(C)C)NC(=O)[C@H](Cc1ccccc1)NC(=O)[C@H](CCC(=O)O)NC(=O)[C@H](C)NC(=O)[C@H](CC(C)C)NC(=O)[C@H](CCCNC(=N)N)NC(=O)[C@H](CCC(N)=O)NC(=O)[C@@H](NC(=O)[C@H](C)NC(=O)[C@@H]1CSSC[C@H](NC(=O)[C@H](CCCCN)NC(=O)CC[C@H](NC(=O)CCCCCCCCCCCCCCCCCCC(=O)O)C(=O)O)C(=O)N[C@@H](CC(N)=O)C(=O)N[C@@H]([C@@H](C)O)C(=O)N[C@@H](C)C(=O)N[C@@H]([C@@H](C)O)C(=O)N1)[C@@H](C)O)C(=O)N1CCC[C@H]1C(=O)N[C@@H](CO)C(=O)N[C@@H](CO)C(=O)N[C@H](C(=O)N[C@@H](CC(N)=O)C(=O)N[C@H](C(=O)NCC(=O)N[C@@H](CCCCN)C(=O)N[C@@H](CC(N)=O)C(=O)N[C@H](C(=O)N[C@@H](Cc1ccc(O)cc1)C(N)=O)[C@@H](C)O)C(C)C)[C@@H](C)O [Example 36] ({C20 diacid-γGlu}-KCNTATCATQRLAEFLRHSSPNFGAIPSSTNVGKNTY-NH2; disulfide 2-7 (inferred))
7 | 0.427 | 49.9 | 49.9 | 49.9 | 49.9 | 49.9 | 49.9 | 49.9 | 74.1 | CC[C@H](C)[C@H](NC(=O)[C@H](C)NC(=O)CNC(=O)[C@H](Cc1ccccc1)NC(=O)[C@H](CC(N)=O)NC(=O)[C@@H]1CCCN1C(=O)[C@H](CO)NC(=O)[C@H](CO)NC(=O)[C@H](Cc1c[nH]cn1)NC(=O)[C@H](CCCNC(=N)N)NC(=O)[C@H](CC(C)C)NC(=O)[C@H](Cc1ccccc1)NC(=O)[C@H](CC(N)=O)NC(=O)[C@H](C)NC(=O)[C@H](CC(C)C)NC(=O)[C@H](CCCNC(=N)N)NC(=O)[C@H](CCC(N)=O)NC(=O)[C@@H](NC(=O)[C@H](C)NC(=O)[C@@H]1CSSC[C@H](NC(=O)[C@@H](N)CCCCNC(=O)COCCOCCNC(=O)CC[C@H](NC(=O)CCCCCCCCCCCCCCCCCCC(=O)O)C(=O)O)C(=O)N[C@@H](CC(N)=O)C(=O)N[C@@H]([C@@H](C)O)C(=O)N[C@@H](C)C(=O)N[C@@H]([C@@H](C)O)C(=O)N1)[C@@H](C)O)C(=O)N1CCC[C@H]1C(=O)N[C@@H](CO)C(=O)N[C@@H](CO)C(=O)N[C@H](C(=O)N[C@@H](CC(N)=O)C(=O)N[C@H](C(=O)NCC(=O)N[C@@H](CO)C(=O)N[C@@H](CC(N)=O)C(=O)N[C@H](C(=O)N[C@@H](Cc1ccc(O)cc1)C(N)=O)[C@@H](C)O)C(C)C)[C@@H](C)O [Example 41]
